Measurements published in patent US9572786B2, “Use of capsiate or dihydrocapsidate” (Catholic University Industry Academy Cooperation Foundation, priority 2007, dated 2017).

Key:
COX-2 = assay: UV-induced COX-2 expression in mouse skin tissue, immunohistochemical staining; format: in vivo; conditions: hairless mouse; 200 μL of 1 mM topically; 4 times of UV irradiation
Description: In order to confirm the in vitro experiment result performed on the human keratinocyte HaCaT cells in an animal model, experiment was carried out as follows using hairless mouse (SKH-1). Test groups were as follows: non-treated group—treated with acetone only without UV irradiation; test group A—treated with 200 μL of 1 mM capsiate dissolved in acetone every 24 hours without UV irradiation; control group—treated with UV and acetone; test group B—treated with UV and 200 μL of 1 mM capsiate dissolved in acetone every 24 hours (Unspecified conditions are the same as in Examples 5-7.).
Capsiate was applied on the back of the mouse. 1 hour later, UV was irradiated at an intensity of 2.5 kJ/m^2. 1 hour later, capsiate was applied again at the same concentration in order to prevent rash which may occur immediately after UV irradiation. Thereafter, capsiate was applied every 24 hours and UV irradiation was carried out every other day at an intensity of 2.5 kJ/m^2 for 4 times. In order to investigate the change of tissue and intracellular mechanism (signaling), the mouse was euthanized 1 hour after the final UV irradiation. Skin tissue was taken from the back of the mouse and subjected to skin biopsy following observation.
In order to reconfirm this effect, immunohistochemical staining was carried out as follows. […]

MMP-2 = assay: UV-induced MMP-2 mRNA expression, RT-PCR; format: cell-based, human; conditions: HaCaT cells; 10, 25, 50 μM; UV 100 J/m^2; 36 hours
Description: The inhibition effect of capsiate on the expression of MMP-2 and MMP-9, which induce angiogenesis, was investigated through measurement of mRNA expression by RT-PCR and protein expression and activity measurement by zymography.
In order to investigate the inhibition effect of capsiate on MMP expression, 5×10^5 HaCaT cells were placed on a 60 mm Petri dish and cultured for 24 hours in DMEM containing 10% FBS. Subsequently, the cells were cultured for 24 hours in DMEM containing 1% FBS until starvation. Then, after treating with capsiate at different concentrations (10 μM, 25 μM, 50 μM) for 30 minutes, followed by washing 3 times with PBS, UV was irradiated at an intensity of 100 J/m^2. Immediately after the UV irradiation, the cells were washed again with PBS and further cultured for 36 hours in DMEM containing 1% FBS, which was treated with capsiate at the same concentration as in the pre-treatment. The degree of intracellular mRNA expression for MMP-2 and MMP-9 was measured by RT-PCR in the same manner as in Example 3. The degree of MMP expression was compared with that of the non-treated group.

P38 = assay: MAPK signaling in mouse skin tissue, Western blotting: P38; format: in vivo; conditions: hairless mouse; UV+CPT vs UV with acetone only
Description: In order to investigate the intracellular mechanism (signaling) related with the inhibition of COX-2 expression by capsiate, Western blotting was carried out for MAPK signaling-related proteins (ERK, p-ERK, p38, p-p38 and JNK, p-JNK) as in Example 2-2, using proteins isolated from the mouse skin tissue.

Question: Which “UV-induced increase of COX-2 in mouse skin tissue (immunohistochemical staining)” value (COX-2) does the source give for `COc1cc(COC(=O)CCCC/C=C/C(C)C)ccc1O` [capsiate] here?
Answer: effectively inhibited

Question: What about the “UV-induced mRNA expression of MMP-2” value (MMP-2) of the same compound?
Answer: decreased

Question: What about the “P38 (phosphorylation) in mouse skin tissue” value (P38) of the same compound?
Answer: no significant difference
